In patent US10159738B2, “Organic-inorganic hybrid solid having a modified outer surface” (CENTRE NATIONAL DE LA RECHERCHE SCIENTIFIQUE-CNRS, priority 2012, dated 2018):

How the values were obtained:
[1] = COOH groups; cited from earlier work
J774 cell line = experiment: Penetration in the J774 cell line (CLSM, ATP-BODIPY label); type: cell-based, murine; details: 50 μg/ml, 15 min to 24 h
Description: For this analysis the MIL-100s were labeled with a fluorophore: adenosine 5′-triphosphate BODIPY-FL (ATP-BODIPY, adenosine 5′-triphosphate, BODIPY® FL, Invitrogen). 1.25 mg of MIL-100 was incubated with 500 μL of an aqueous solution of ATP-BODIPY 10 nmol/ml, for 1 h, with stirring in the dark at room temperature. At the end of incubation, the nanoparticles were recovered by centrifugation at 5600×g for 10 min, and the supernatant was analyzed by spectrofluorimetry in order to quantify the level of absorption of the fluorophore. The nanoparticles were then incubated in 500 μl of water (unmodified sample) or of an aqueous solution of βCDP 1.25 mg/ml, for 1 h with stirring, at room temperature, in the dark. At the end of incubation, the nanoparticles were recovered by centrifugation at 5600×g for 10 min and resuspended in RMPI 10% FBS (fetal bovine serum) to a final concentration of 50 μg/ml. The cells of the J774 line had been cultured beforehand in 24-well plates (5×10^4 cells per well) on a sterile glass cover slip.
After 24 h of incubation in a humidified incubator at 37° C., the culture medium was replaced with 1 ml of the solutions of nanoparticles loaded with ATP-BODIPY (unmodified or surface-modified), or with free ATP-BODIPY. After various incubation times (15 min, 1 h, 4 h, 24 h), the culture medium was aspirated and the cells were fixed.

| Compound | pKa [1] | internalization in the cells (J774 cell line) |
| --- | --- | --- |
| O=C(O)c1cc(C(=O)O)cc(C(=O)O)c1 [trimesic acid, 1,3,5-benzenetricarboxylic acid] | 3.4 | – |
| adenosine 5′-triphosphate, BODIPY® FL [ATP-BODIPY] | – | no fluorescence was observed in the cells |
